According to patent US20110009351A1, “SCREENING ASSAY TO IDENTIFY CORRECTORS OF PROTEIN TRAFFICKING DEFECTS” (Traffick Therepeutics Inc., priority 2007, published 2011):
Counter-ions that a name gives are not always drawn. Like-named read-outs stand apart in the source and are kept apart here.

Key:
Type in all cases: cell-based
ΔF508-CFTR [1] = molecular target: T1, ΔF508-CFTR (Homo sapiens, UniProt P13569, DEL508-508); experiment: three stage ELISA of CFTR surface expression, BHK cells expressing ΔF508-CFTR; design: which was then ligated into full length pNUT-CFTR linearized using Hpa1 and Pml1; expressed in transfected cells; details: 10% glycerol or 1 mM sodium 4-phenylbutyrate, 24 hours
T1 sequence (P13569 with tags, fused parts or gaps DEL508-508): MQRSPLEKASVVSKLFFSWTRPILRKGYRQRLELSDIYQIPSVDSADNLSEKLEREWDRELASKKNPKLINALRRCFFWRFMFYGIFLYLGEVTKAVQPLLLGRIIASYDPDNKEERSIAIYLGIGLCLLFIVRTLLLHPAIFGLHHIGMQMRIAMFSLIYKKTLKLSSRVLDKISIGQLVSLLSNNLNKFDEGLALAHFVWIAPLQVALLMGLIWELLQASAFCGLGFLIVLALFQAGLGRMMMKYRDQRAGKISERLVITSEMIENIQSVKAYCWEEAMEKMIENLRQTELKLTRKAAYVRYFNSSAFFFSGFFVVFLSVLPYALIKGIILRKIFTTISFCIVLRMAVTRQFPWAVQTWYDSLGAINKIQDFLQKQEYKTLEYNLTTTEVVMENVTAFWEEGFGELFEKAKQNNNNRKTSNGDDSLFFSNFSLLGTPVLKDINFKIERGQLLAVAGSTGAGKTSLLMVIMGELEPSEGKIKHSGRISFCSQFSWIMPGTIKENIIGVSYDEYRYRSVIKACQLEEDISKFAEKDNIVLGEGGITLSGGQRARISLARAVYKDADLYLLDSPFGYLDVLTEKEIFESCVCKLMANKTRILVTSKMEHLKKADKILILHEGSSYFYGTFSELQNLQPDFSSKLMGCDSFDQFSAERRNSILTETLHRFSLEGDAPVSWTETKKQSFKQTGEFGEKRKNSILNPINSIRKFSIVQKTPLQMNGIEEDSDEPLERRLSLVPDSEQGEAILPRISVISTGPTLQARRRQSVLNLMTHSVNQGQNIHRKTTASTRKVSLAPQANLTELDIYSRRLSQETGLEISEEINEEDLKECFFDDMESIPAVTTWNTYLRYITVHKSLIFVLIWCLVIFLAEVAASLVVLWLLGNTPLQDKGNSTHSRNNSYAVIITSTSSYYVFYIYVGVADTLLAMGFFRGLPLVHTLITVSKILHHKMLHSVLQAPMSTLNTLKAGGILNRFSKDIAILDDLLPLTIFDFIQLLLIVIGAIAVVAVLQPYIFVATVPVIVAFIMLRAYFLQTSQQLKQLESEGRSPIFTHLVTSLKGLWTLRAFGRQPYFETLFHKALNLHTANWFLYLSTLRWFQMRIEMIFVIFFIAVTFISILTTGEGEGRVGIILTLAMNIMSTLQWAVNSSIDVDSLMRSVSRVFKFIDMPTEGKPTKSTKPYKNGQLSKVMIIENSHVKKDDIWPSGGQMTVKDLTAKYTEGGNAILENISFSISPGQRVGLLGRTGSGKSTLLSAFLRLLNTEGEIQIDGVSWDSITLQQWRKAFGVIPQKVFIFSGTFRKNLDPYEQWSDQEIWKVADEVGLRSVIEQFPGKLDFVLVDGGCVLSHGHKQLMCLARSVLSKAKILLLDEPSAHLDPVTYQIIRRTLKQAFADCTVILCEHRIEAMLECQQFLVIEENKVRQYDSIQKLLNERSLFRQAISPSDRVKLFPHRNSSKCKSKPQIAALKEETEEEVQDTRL
Procedure: Cells were screened for CFTR surface expression using a three stage ELISA system (Pierce Inc., USA). Briefly, BHK cells expressing 3HA-tagged ΔF508-CFTR were seeded in 96-well plates (Corning, USA) at 30,000 cells per well and incubated for 24 h at 37° C. Each well was treated with a test compound for 24 h, then cells were fixed in 4% paraformaldehyde solution and washed with PBS containing 0.1% bovine serum albumin and 0.05% tween-20. Cells were blocked for 1 h in solution containing 3% normal horse serum in PBS at room temperature. […] After washing four more times, the cells were exposed to 3,3′,5,5′ tetramethylbenzidine (Pierce Inc., USA) for 15 min, sulphuric acid (2M) was added, and absorbance was measured at 450 nm (Power-Wavex Bio-tek Instruments).
To determine if cell surface expression of CFTR could be quantified in a high-throughput screen using this assay, cells expressing tagged versions of wt or ΔF508-CFTR were seeded in 96-well plates, treated with 10% glycerol and monitored as light absorbance using an enzyme-linked assay system. As expected, untreated ΔF508-CFTR cells had low absorbance since they expressed little CFTR on their cell surface under control conditions (FIG. 3A).

ΔF508-CFTR [2] = molecular target: T1, ΔF508-CFTR; design: which was then ligated into full length pNUT-CFTR linearized using Hpa1 and Pml1; expressed in transfected cells; details: for hit in screen (class letter): BHK cells
Procedure: BHK cells expressing 3HA-tagged ΔF508-CFTR between passages 5-8 were seeded in 96-well plates (Corning half area, black-sided, clear bottom) at 15,000 cells per well and incubated with culture medium for 24 h at 37° C. Each well was then treated with a different test compound (80 compounds per plate) for 24 h at 20 μM final concentration. The remaining 16 wells on each plate were used for control conditions. […] Cells were fixed in a 4% paraformaldehyde solution, washed with PBS, and blocked with PBS containing 5% fetal bovine serum (FBS) for 1 hat 4° C.
Blocking solution was replaced with 15 μl of primary antibody solution containing 1% FBS and mouse monoclonal anti-HA antibody (1:150 dilution, Sigma) in PBS. The plates were sealed and left at 4° C. overnight. After three washes with 100 μl PBS, cells were incubated for 1 h with 15 μl of secondary antibody solution containing 1% FBS and anti-mouse IgG conjugated with FITC (1:100 dilution, Sigma) in PBS. Cells were again washed three times with 100 μl of PBS and analyzed in a plate reader (Analyst™ HT96.384, Biosystems; 488 nm excitation/510 nm emission). […] The mean fluorescence of four untreated wells was used as the background signal when calculating deviations of the 80 compound-treated wells. Hits were then cherry-picked into reservoir plates and re-tested in duplicate using the same assay.
BHK cells expressing ΔF508-CFTR were incubated with test compounds (20 μM) for 24 hours at 37° C. in a 96 well format. Plasma membrane expression of ΔF508-CFTR was then assayed by immunofluorescence using a primary antibody directed against the inserted 3HA tag and a secondary antibody conjugated with a fluorophore (FITC). […] The positive compounds were selected and retested in duplicate to obtain an N of 3. At the re-screening stage, the intrinsic fluorescence of each potential hit was also measured and the fluorescent ones were not considered further.
Screening was performed using BHK cells that stably express F508-CFTR bearing three tandem haemagglutinin-epitope tags (3HA) and linker sequences in the fourth extracellular loop after amino acid 901 (Howard et al., 1995; Carlile et al., 2007; Robert et al., 2008). […] Screening was performed using the Prestwick Chemical Library of 1120 high-purity compounds.

F508del CFTR = molecular target: T2, F508del CFTR (Homo sapiens, UniProt P13569, DEL508-508); experiment: YFP fluorescence quenching functional assay (iodide influx), HEK293 cells with F508del CFTR and halide sensitive YFP; details: 10 μM, 24 h; for remaining activity at 10 µM: HEK293, read-out: % YFP quench; for remaining activity at 10 µM / % YFP quench: nc = 100% pc = 69.2
T2 construct: expressed in transfected cells; host or cells: HEK293 Griptite cells stably expressing F508del CFTR, transiently transfected with halide-sensitive eYFP
T2 sequence (P13569 with tags, fused parts or gaps DEL508-508): as above
Procedure: In addition to the MDS compounds, the 1120 Prestwick Library compounds were screened. (See FIGS. 7 to 12.) Of the compounds, one qualified as a “strong” hit, 3 as “medium” hits and 57 as “weak” hits. The Z score for the assay was 0.62. The top 50 hits were further tested in a counter screen in which the halide sensitive fluorescent compound (YFP) was expressed inside cells (Table 2). After incubation with the test compounds the ability of the cells to uptake iodide was measure by decreasing YFP fluorescence. In these cells this can only occur if functional CFTR is present at the cell surface (FIG. 7). The hits were also tested for the appearance of the Band C form of CFTR. […] The functionality of the compounds was further studied by the use of Iodide efflux assays for each compound in both BHK and the more physiologically relevant CFBE cells. […] FIG. 10 is a table of results for the 15 hit compounds which summarizes many experiments. […] The results for the best 15 compounds from the Prestwick Library, or “Prestwick 15”, are shown FIGS. 8, 9 and 10.
Strongly adhesive Human […] Kidney cells stably expressing both the human macrophage scavenger receptor (HEK293 Griptite, Invitrogen) and F508del CFTR were plated in 96-well plates and transiently transfected with pcDNA3 plasmid encoding a halide sensitive variant of eYFP. After 24-48 h later cells were exposed to 10 μM test compound in triplicate and incubated for an additional 24 h. Cells were stimulated for 20 minutes with a in a buffer containing 25 μM forskolin, 45 μM IBMX and 50 μM genistein final concentration. The high content screening assay was performed using a Cellomics platform. Iodide was added robotically to a final concentration of 50 mM and the resulting decrease in fluorescence was measured. Images were taken at time 0 and stored for subsequent use when calculating a mask so that only those cells that express YFP at time 0 are measured. The quenching was detected in 15 images taken over the course of an experiment lasting 40 seconds. Each test compound was compared to the following two controls: a negative control without drugs to assess photobleaching that may occur when the same field of view is repeatedly imaged, and a positive control with cells treated with a known potentiator. Results were generated from 150-300 cells per well.

[3] = Prestwick library, initial corrector assay
[4] = Prestwick library, initial corrector assay, standard deviations above untreated controls

| Compound | plasma membrane signal (absorbance), words (ΔF508-CFTR [1]) | increase in signal, suitability as positive control for the corrector assay screen (ΔF508-CFTR [2]; kifunesine 100 μM, Sodium 4 Phenylbutyrate 1 mM, curcumin 40 μM, 24 hours) | hit in screen (class letter) (ΔF508-CFTR [2]; [3]) | hit in screen (score) (ΔF508-CFTR [2]; [4]) | remaining activity at 10 µM (F508del CFTR) [%] | % YFP quench (F508del CFTR) [%] | hit in screen (score) (ΔF508-CFTR [2]) | functional correction in YFP quenching assay (F508del CFTR) |
| --- | --- | --- | --- | --- | --- | --- | --- | --- |
| O=C([O-])CCCc1ccccc1.[Na+] [sodium 4-phenylbutyrate] | increased the plasma membrane signal | not sufficient to act as a positive control | – | – | – | – | – | – |
| CC[C@@H](CO)NC(=O)[C@@H]1C=C2c3cccc4[nH]cc(c34)C[C@H]2N(C)C1 [Methylergometrine maleate] | – | – | W (Medium and weak hits were defined as compounds giving a cell fluorescence signal that was between 2 and 3 or 1 and 2 standard deviations, respectively, above untreated control wells) | 1.1 | 94 | – | – | – |
| N[C@H]1CONC1=O [(S)-(−)-Cycloserine] | – | – | W (Medium and weak hits were defined as compounds giving a cell fluorescence signal that was between 2 and 3 or 1 and 2 standard deviations, respectively, above untreated control wells) | 1.4 | – | 98 | – | – |
| CC(C(=O)O)c1ccc(-c2ccccc2)c(F)c1 (stereo not shown) [Flubiprofen] | – | – | W (Medium and weak hits were defined as compounds giving a cell fluorescence signal that was between 2 and 3 or 1 and 2 standard deviations, respectively, above untreated control wells) | 1.0 | 98 | – | – | – |
| Cytisine (−) | – | – | M (Medium and weak hits were defined as compounds giving a cell fluorescence signal that was between 2 and 3 or 1 and 2 standard deviations, respectively, above untreated control wells) | 2.0 | – | 97 | – | – |
| C[C@@H]1CCC[C@H](C)N1NC(=O)c1ccc(Cl)c(S(N)(=O)=O)c1 [Clopamide] | – | – | W (Medium and weak hits were defined as compounds giving a cell fluorescence signal that was between 2 and 3 or 1 and 2 standard deviations, respectively, above untreated control wells) | 1.1 | 79 | – | – | – |
| Oubinidine | – | – | W (Medium and weak hits were defined as compounds giving a cell fluorescence signal that was between 2 and 3 or 1 and 2 standard deviations, respectively, above untreated control wells) | 1.2 | – | 104 | – | – |
| Clc1ccc(Cn2c(CN3CCCC3)nc3ccccc32)cc1 [Clemizole hydrochloride] | – | – | W (Medium and weak hits were defined as compounds giving a cell fluorescence signal that was between 2 and 3 or 1 and 2 standard deviations, respectively, above untreated control wells) | 1.5 | 84 | – | – | – |
| CC(C)Cc1ccc([C@H](C)C(=O)O)cc1 [S-(+)-Ibuorofen] | – | – | – | 1.1 | – | 91 | – | – |
| OCC(O)CN1CCN(c2ccccc2)CC1 (racemic) [Dropropizine (R, S)] | – | – | W (Medium and weak hits were defined as compounds giving a cell fluorescence signal that was between 2 and 3 or 1 and 2 standard deviations, respectively, above untreated control wells) | 1.2 | – | 92 | – | – |
| C[C@]12CCC(=O)C=C1CC[C@@H]1[C@@H]2[C@@H](O)C[C@@]2(C)[C@H]1CC[C@]2(O)C(=O)CO [Hydrocortisone base] | – | – | W (Medium and weak hits were defined as compounds giving a cell fluorescence signal that was between 2 and 3 or 1 and 2 standard deviations, respectively, above untreated control wells) | 1.1 | – | 94 | – | – |
| O=C1CCC(N2C(=O)c3ccccc3C2=O)C(=O)N1 (stereo not shown) [Thalidomide] | – | – | M (Medium and weak hits were defined as compounds giving a cell fluorescence signal that was between 2 and 3 or 1 and 2 standard deviations, respectively, above untreated control wells) | 2.0 | 92 | – | – | – |
| CCOc1ccc2ccccc2c1C(=O)N[C@@H]1C(=O)N2[C@@H]1SC(C)(C)[C@@H]2C(=O)O [Nafcillin sodium salt monohydrate] | – | – | – | – | 97 | – | W 1.2 | – |
| C#CCN(C)CCCOc1ccc(Cl)cc1Cl [Clorgyline hydrochloride] | – | – | W (Medium and weak hits were defined as compounds giving a cell fluorescence signal that was between 2 and 3 or 1 and 2 standard deviations, respectively, above untreated control wells) | 1.0 | 77 | – | – | – |
| Cyanocobalamin | – | – | W (Medium and weak hits were defined as compounds giving a cell fluorescence signal that was between 2 and 3 or 1 and 2 standard deviations, respectively, above untreated control wells) | 1.1 | – | 100 | – | not functional |
| Terbutaline hemisulfate | – | – | W (Medium and weak hits were defined as compounds giving a cell fluorescence signal that was between 2 and 3 or 1 and 2 standard deviations, respectively, above untreated control wells) | 1.3 | – | 100 | – | – |
| O=C([O-])c1ccccc1-c1c2cc(Br)c(=O)cc-2oc2[c]([Hg+])c([O-])c(Br)cc12.[Na+].[Na+].[OH-] [Merbromin] | – | – | S (strong hits were initially identified as those compounds giving a cell fluorescence signal that was ≧3 standard deviations (SD) above untreated control wells) | 3.6 | – | 107 | – | – |
